Activity calls are given as the source filed them. The rule behind the calls is not given here.
Experiments:
HEK293 = test: Cytotoxicity against HEK293 cells assessed as reduction in cell viability at 10 uM measured after 72 hrs by CellTiter 96 Aqueous One Solution Cell Proliferation Assay; assay type: toxicity, cell-based; settings: human, hek293, 72 h
JIMT-1 = test: Antiproliferative activity against human JIMT-1 cells assessed as inhibition of cell viability at 10 uM measured after 72 hrs by CellTiter 96 Aqueous One Solution Cell Proliferation Assay; assay type: functional, cell-based
BT-474 = test: Antiproliferative activity against human BT-474 cells assessed as inhibition of cell viability at 10 uM measured after 72 hrs by CellTiter 96 Aqueous One Solution Cell Proliferation Assay; assay type: functional, cell-based
CYP1A2 = target: T1, CYP1A2 (Homo sapiens, UniProt P05177); test: Inhibition of CYP1A2 (unknown origin) at 10 uM relative to control; assay type: ADME
T1 sequence (P05177 whole entry): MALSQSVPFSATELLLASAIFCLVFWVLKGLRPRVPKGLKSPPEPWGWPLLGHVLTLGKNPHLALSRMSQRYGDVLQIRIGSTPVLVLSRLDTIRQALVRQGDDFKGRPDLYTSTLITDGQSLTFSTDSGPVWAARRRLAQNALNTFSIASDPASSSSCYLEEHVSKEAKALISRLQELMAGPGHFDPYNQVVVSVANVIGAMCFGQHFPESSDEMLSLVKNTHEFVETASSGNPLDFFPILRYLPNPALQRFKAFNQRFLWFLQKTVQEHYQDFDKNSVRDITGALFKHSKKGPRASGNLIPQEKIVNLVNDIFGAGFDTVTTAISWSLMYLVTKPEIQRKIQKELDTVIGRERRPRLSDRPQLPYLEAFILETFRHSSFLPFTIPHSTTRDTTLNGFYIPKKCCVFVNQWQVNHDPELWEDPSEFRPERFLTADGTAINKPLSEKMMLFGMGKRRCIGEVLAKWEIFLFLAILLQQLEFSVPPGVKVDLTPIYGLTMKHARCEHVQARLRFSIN

CYP2C9 = CYP2C9 (Homo sapiens, UniProt P11712); test: Inhibition of CYP2C9 (unknown origin) at 10 uM relative to control; assay type: ADME
CYP3A4 = CYP3A4 (Homo sapiens, UniProt P08684); test: Inhibition of CYP3A4 (unknown origin) at 10 uM relative to control; assay type: ADME
CYP2C19 = CYP2C19 (Homo sapiens, UniProt P33261); test: Inhibition of CYP2C19 (unknown origin) at 10 uM relative to control; assay type: ADME
Chain of CYP2C19 (P33261 whole entry): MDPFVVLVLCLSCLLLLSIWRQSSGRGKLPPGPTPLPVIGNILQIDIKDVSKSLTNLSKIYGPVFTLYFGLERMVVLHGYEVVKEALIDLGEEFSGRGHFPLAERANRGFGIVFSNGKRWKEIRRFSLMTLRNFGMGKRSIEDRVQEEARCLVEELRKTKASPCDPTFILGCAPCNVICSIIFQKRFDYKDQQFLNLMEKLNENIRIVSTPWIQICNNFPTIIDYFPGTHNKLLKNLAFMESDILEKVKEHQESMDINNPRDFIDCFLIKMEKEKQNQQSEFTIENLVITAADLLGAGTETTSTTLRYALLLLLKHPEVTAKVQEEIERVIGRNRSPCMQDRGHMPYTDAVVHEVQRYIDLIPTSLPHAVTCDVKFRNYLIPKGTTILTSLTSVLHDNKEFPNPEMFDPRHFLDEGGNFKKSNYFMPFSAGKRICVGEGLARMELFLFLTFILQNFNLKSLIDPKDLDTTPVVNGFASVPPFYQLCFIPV

Chain of CYP3A4 (P08684 whole entry): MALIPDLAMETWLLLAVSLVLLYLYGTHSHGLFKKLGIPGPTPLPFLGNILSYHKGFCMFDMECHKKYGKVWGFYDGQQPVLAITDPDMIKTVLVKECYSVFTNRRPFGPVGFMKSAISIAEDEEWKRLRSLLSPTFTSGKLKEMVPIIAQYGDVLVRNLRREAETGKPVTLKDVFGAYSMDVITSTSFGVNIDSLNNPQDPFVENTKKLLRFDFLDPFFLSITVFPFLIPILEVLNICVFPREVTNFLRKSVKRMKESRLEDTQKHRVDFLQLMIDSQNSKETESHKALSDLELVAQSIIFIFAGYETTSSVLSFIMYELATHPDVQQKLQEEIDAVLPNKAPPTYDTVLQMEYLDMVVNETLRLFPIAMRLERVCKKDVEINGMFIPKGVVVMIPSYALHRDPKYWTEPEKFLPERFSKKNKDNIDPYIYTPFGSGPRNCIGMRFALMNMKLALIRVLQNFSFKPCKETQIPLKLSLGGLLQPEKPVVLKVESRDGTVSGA
Chain of CYP2C9 (P11712 whole entry): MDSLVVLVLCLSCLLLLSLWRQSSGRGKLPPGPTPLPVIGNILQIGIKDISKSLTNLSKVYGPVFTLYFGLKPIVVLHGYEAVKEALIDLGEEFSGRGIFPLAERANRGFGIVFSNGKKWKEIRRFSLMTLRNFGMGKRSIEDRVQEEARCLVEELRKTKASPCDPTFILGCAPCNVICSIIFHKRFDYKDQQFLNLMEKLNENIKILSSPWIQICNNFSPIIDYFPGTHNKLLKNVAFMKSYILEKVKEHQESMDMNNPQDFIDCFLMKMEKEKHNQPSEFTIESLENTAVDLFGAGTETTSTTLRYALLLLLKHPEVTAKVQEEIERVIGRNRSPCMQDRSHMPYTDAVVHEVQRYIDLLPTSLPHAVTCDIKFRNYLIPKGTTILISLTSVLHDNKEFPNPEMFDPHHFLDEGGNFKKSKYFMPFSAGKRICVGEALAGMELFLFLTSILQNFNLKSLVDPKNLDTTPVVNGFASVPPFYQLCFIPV

Row | SMILES | Activity (HEK293) | Activity (JIMT-1) | Activity (BT-474) | inhibition at 10 µM (CYP1A2) [%] | inhibition at 10 µM (CYP2C9) [%] | inhibition at 10 µM (CYP3A4) [%] | inhibition at 10 µM (CYP2C19) [%]
1 | COCCn1cc(NC(=O)c2ccc3c(c2OC)C=CC(C)(C)O3)c2cncnc21 | Toxic | Active | Active | – | – | – | –
2 | CC(=O)N1CCN(c2ccc(OCC3COC(Cn4ccnc4)(c4ccc(Cl)cc4Cl)O3)cc2)CC1 (configuration not stated) [KETOCONAZOLE] | – | – | – | > 100 | 96.8 | 32 | > 100
